Holding throughout (experiment): NCI anticancer screen, dose series, 48 h
In assay [1] the test system is RPMI-8226 leukemia.
Assay [2] deals with OVCAR-4 ovarian.
The test system of assay [3] is SF-539 CNS.
In assay [4] the test system is BT-549 breast.
The test system of assay [5] is MDA-MB-231 breast.
Assay [6] deals with SNB-75 CNS.
Assay [7] concerns M14 melanoma.
The subject of assay [8] is NCI-H226 lung.
Assay [9] deals with UACC-62 melanoma.
Assay [10] has as its system HCC-2998 colon.

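Following 48 hours of exposure in 96-well plates, responses at five concentrations were used to interpolate endpoints linearly. At the GI50, growth is halved. At the TGI there is no net growth.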 A value given as a limit tells only on which side of the number the result lay.

Consider 15 molecules from PubChem BioAssay (NCI).

For `COc1ccc(S(=O)(=O)N(Cc2ccc3c(n2)C=CC(C)(C)O3)C2CCC2)cc1OC`, the GI50 in assay [1] is 0.0331 µM; in [2], below 0.01 µM; in assay [3], below 0.01 µM; in [4], below 0.01 µM; in assay [5], below 0.01 µM; in [6], below 0.01 µM. Further, the GI50 in assay [7] was below 0.01 µM; in assay [8], 0.0101 µM; in assay [9], below 0.01 µM; in [10] it was below 0.01 µM. Also, the TGI in [1] is 0.163 µM; in assay [2], 0.266 µM; in [3], 0.378 µM; in [4], 0.171 µM; in assay [5] it was 0.0131 µM; in assay [6], 0.238 µM. For the same molecule, the TGI in assay [7] came to 0.228 µM; in assay [8] it was 3.75 µM; in [9], 0.05 µM; in [10], 3.79 µM.
`Cn1cc(-c2csc(-c3cccc(F)c3)n2)c2cccnc21`: the GI50 in assay [1] was 25.2 µM; in assay [2] it was 27.6 µM; in assay [3], 15.5 µM; in assay [4], 20.9 µM; in [5], 16.8 µM; in assay [6] it was 35.7 µM. For the same molecule, the GI50 is 15.3 µM in [7], 19.4 µM in [8], 13.8 µM in assay [9] and 18.9 µM in assay [10]. The TGI in assay [1] was above 100 µM; in assay [2], 78.6 µM; in [3], 30.1 µM; in [4], 56.1 µM; in assay [5], 35.3 µM; in assay [6], above 100 µM. Further, the TGI in assay [7] turned out to be 29.5 µM; in assay [8] it was 51.1 µM; in assay [9], 27.8 µM; in assay [10] it was 33.6 µM.
In the case of `COC(=O)[C@]12CCC(C)(C)C[C@H]1C1=CC[C@@H]3[C@@]4(C)C/C(=C/c5cccnc5)C(=O)C(C)(C)[C@@H]4CC[C@@]3(C)[C@]1(C)CC2`, the GI50 in assay [1] was 2.31 µM; in [2] it was 11.3 µM; in [3], 7.43 µM; in [4], 2.56 µM; in assay [5], 10.2 µM; in assay [6] it was 17.6 µM. The GI50 is 3.63 µM in assay [7], 3.97 µM in assay [8], 2.89 µM in [9] and 5.56 µM in assay [10]. For the same molecule, the TGI in assay [1] was 6.39 µM; in [2], above 100 µM; in assay [3] it was 20.7 µM; in assay [4] it was 7.93 µM; in assay [5], 32.2 µM; in [6] it was 48.5 µM. Also, the TGI in [7] came to 13.4 µM; in assay [8], 17.9 µM; in [9] it was 12.8 µM; in assay [10], 19.5 µM.
On to `COc1cc([C@@H]2c3cc4c(cc3C(O[C@@H]3O[C@@H]5CO[C@@H](c6cccs6)OC5[C@H](O)[C@H]3O)C3COC(=O)[C@@H]32)OCO4)cc(OC)c1O` (some centres not stated), for which the GI50 was 0.0298 µM in [1]; 0.401 µM in assay [2]; 0.0268 µM in assay [3]; 0.0878 µM in assay [4]; 0.267 µM in [5]; 0.0659 µM in assay [6]. Also, the GI50 in assay [7] is 0.0732 µM; in assay [8], 0.0223 µM; in [9], 0.0409 µM; in assay [10], 0.109 µM. Besides, the TGI worked out at 1.28 µM in [1]; 3.95 µM in assay [2]; 0.199 µM in assay [3]; 1.31 µM in assay [4]; 3.58 µM in assay [5]; 0.491 µM in assay [6]. Also, the TGI is 0.888 µM in [7], 0.149 µM in [8], 1.1 µM in assay [9] and 0.446 µM in [10].
As to `COc1ccc(OC(=O)O[C@H]2[C@H](O[C@H]3[C@@H](O)COC(O[C@H]4C[C@H]5[C@@H]6CC=C7C[C@@H](O)CC[C@]7(C)[C@H]6CC[C@]5(C)[C@H]4[C@H](C)C(=O)CCC(C)C)[C@@H]3OC(C)=O)OC[C@@H](O)[C@@H]2O)cc1` (some centres not stated), the GI50 is below 0.01 µM in assay [1]; 1.12 µM in [2]; below 0.01 µM in [3]; 0.0185 µM in [4]; 0.961 µM in assay [5]; below 0.01 µM in assay [6]. For the same molecule, the GI50 in assay [7] is 0.04 µM; in assay [8] it was 0.58 µM; in assay [9], 0.0171 µM; in assay [10], 4.91 µM. In addition, the TGI in [1] was found to be 0.0321 µM; in assay [2], 20.3 µM; in [3], 0.0764 µM; in assay [4], 15.2 µM; in assay [5] it was 18.1 µM; in assay [6], 10.9 µM. For the same molecule, the TGI was found to be 0.262 µM in assay [7], 18.7 µM in [8], 0.0516 µM in assay [9] and 21.4 µM in assay [10].
Turning to `CCOC(=O)c1c(C)n(Cc2ccc(OC)cc2)c2c1cc(O)c1[nH]c3c(c12)CCCC3`, the GI50 was 3.78 µM in assay [1]; 15.6 µM in [2]; 2.76 µM in assay [3]; 4.21 µM in assay [4]; 0.617 µM in [5]; 4.77 µM in assay [6]. Further, the GI50 in assay [7] was 11.8 µM; in assay [8], 15.5 µM; in assay [9], 1.97 µM; in assay [10], 2.39 µM. Also, the TGI was 58 µM in [1]; 88.6 µM in [2]; 7.07 µM in [3]; 27.8 µM in assay [4]; above 100 µM in [5]; above 100 µM in assay [6]. The TGI in [7] was 34.2 µM; in [8] it was 32.9 µM; in assay [9], 4.61 µM; in [10] it was 14.5 µM.
Regarding `CC(=O)[O][Hg][c]1c(C)c(C)c(C)c(C)c1C`, the GI50 in [1] was 1.8 µM; in assay [2], 2.04 µM; in assay [3], 1.66 µM; in assay [4] it was 1.16 µM; in assay [5], 0.552 µM; in assay [6], 1.75 µM. In addition, the GI50 is 1.35 µM in assay [7], 3.65 µM in [8], 0.856 µM in assay [9] and 1.53 µM in assay [10]. Also, the TGI in [1] is 6.22 µM; in assay [2], 4.47 µM; in assay [3] it was 3.25 µM; in [4], 2.38 µM; in assay [5], 1.31 µM; in [6] it was 3.33 µM. Also, the TGI turned out to be 2.65 µM in [7], 10 µM in [8], 2.95 µM in assay [9] and 3.2 µM in assay [10].
Regarding `CNC1C(=O)C(C)C(O)(C(CC(C)C(O)/C=C/C=C/CNC(=O)C(C)(C)C(O)\C(C)=C/C=C\C=C\Cc2cnc(C)o2)OC)C12C(=O)OC2COC` (configuration not stated) (tested in a mixture with another compound), the TGI in assay [1] is 42.4 µM; in assay [2] it was above 100 µM; in assay [3] it was 67 µM; in assay [4] it was above 100 µM; in [5], above 63.3 µM; in assay [6], 30.6 µM. Also, the TGI turned out to be 27 µM in assay [7], 4.92 µM in assay [8], 49.9 µM in assay [9] and 41.7 µM in [10].
As for `COc1ccc(-c2nc(-c3nc4ccc(C)cc4[nH]3)c3ccccn23)cc1`, the GI50 in assay [1] was 1.47 µM; in [2], 3.81 µM; in [3] it was 3.32 µM; in [4], 2.55 µM; in assay [5] it was 3.09 µM; in assay [6], 5.49 µM. Besides, the GI50 in assay [7] was 3.15 µM; in assay [8], 3.88 µM; in assay [9], 2.14 µM; in assay [10] it was 2.93 µM. Besides, the TGI in [1] was 3.93 µM; in assay [2], above 100 µM; in [3] it was above 100 µM; in assay [4] it was 6.36 µM; in assay [5], above 100 µM; in assay [6], above 100 µM. Further, the TGI in assay [7] is 8.6 µM; in [8], above 100 µM; in assay [9], 5.66 µM; in assay [10] it was 7.01 µM.
For the molecule `O=c1[nH]c(=O)n(C2CC(O)C(CS)O2)cc1F` (configuration not stated), the TGI in assay [1] is above 100 µM; in assay [2], above 100 µM; in [3], above 90.2 µM; in [4] it was above 100 µM; in assay [5], above 100 µM; in [6], above 100 µM. For the same molecule, the TGI in assay [7], in [8], in [9] and in assay [10] was above 100 µM throughout.
`C=C1C(=O)O[C@H]2[C@H]1CC/C(COC(=O)/C=C\C(=O)NCc1ccc(Cn3c(=O)sn(-c4ccc(C#N)cc4)c3=O)cc1)=C\CC[C@@]1(C)O[C@@H]21`: the GI50 in assay [1] was 0.443 µM; in assay [2] it was 0.672 µM; in assay [3], 0.753 µM; in [4], 0.697 µM; in [5] it was 0.72 µM; in assay [6] it was 0.581 µM. Moreover, the GI50 in assay [7] is 0.699 µM; in assay [8], 1.36 µM; in assay [9] it was 0.722 µM; in assay [10], 0.901 µM. Further, the TGI in assay [1] came out at 2.59 µM; in assay [2] it was 1.37 µM; in assay [3] it was 1.43 µM; in assay [4], 1.65 µM; in assay [5], 1.74 µM; in [6], 1.33 µM. The TGI in assay [7] came out at 1.66 µM; in [8] it was 5.63 µM; in [9] it was 1.45 µM; in assay [10], 1.76 µM.
Regarding `Cn1cc(C2=C(c3cn(CCCN=C(N)N)c4ccccc34)C(=O)NC2=O)c2ccccc21`, the GI50 in assay [1] is above 25 µM; in assay [2], above 25 µM; in assay [3], above 25 µM; in [4], above 25 µM; in [5] it was above 25 µM; in assay [6] it was 0.361 µM. Besides, the GI50 in assay [7], in [8], in assay [9] and in assay [10] was above 25 µM in each case. The TGI in [1], in assay [2], in [3], in [4], in [5] and in assay [6] was above 25 µM each time. In addition, the TGI in assay [7], in [8], in assay [9] and in assay [10] was above 25 µM in each case.
With `COc1ccc(-n2cc(-c3cc(OC)c(OC)c(OC)c3)[nH]c2=S)cc1OC`, the GI50 in assay [1] was above 100 µM; in assay [2], above 100 µM; in assay [3] it was above 100 µM; in [4], above 100 µM; in assay [5], above 100 µM; in [6] it was 57 µM. Moreover, the GI50 in assay [7] is above 100 µM; in assay [8], above 100 µM; in assay [9] it was above 100 µM; in assay [10], 76.8 µM. The TGI in [1], in assay [2], in assay [3], in assay [4], in [5] and in assay [6] was above 100 µM each time. Moreover, the TGI in [7], in assay [8], in assay [9] and in [10] was above 100 µM each time.
Turning to `CCC1(O)C(=O)OCc2c1cc1n(c2=O)Cc2cc3c(N)cccc3nc2-1` (configuration not stated), the GI50 was 0.0279 µM in assay [1] and below 0.01 µM in [7]. Further, the TGI came to 0.879 µM in assay [1]; 11.6 µM in assay [2]; 0.0409 µM in assay [3]; 4.95 µM in assay [4]; 14.2 µM in [5]; 0.251 µM in [6]. Besides, the TGI in assay [7] worked out at 0.0872 µM; in assay [8], 0.0597 µM; in assay [9], 0.0345 µM; in assay [10], 2.58 µM.
Take `COc1ccc(-n2c(SCc3cc(OC)c(OC)c(OC)c3)nc3ccc(C)cc3c2=O)cc1`: the GI50 was 2.55 µM in assay [1]; 9.9 µM in [2]; 14.8 µM in assay [3]; 7.37 µM in assay [4]; 5.73 µM in assay [5]; 2.76 µM in [6]. In addition, the GI50 in [7] was 4.26 µM; in [8], above 100 µM; in assay [9], 6.82 µM; in assay [10], above 100 µM. Further, the TGI in [1] was 50.9 µM; in assay [2] it was above 100 µM; in assay [3], above 100 µM; in assay [4] it was above 100 µM; in [5], above 100 µM; in [6], above 100 µM. Besides, the TGI in assay [7], in [8], in assay [9] and in [10] was above 100 µM in each case.
